{
  "source": "paper PMC7753975",
  "about": "(Journal of medicinal chemistry, 2015)",
  "data": [
    {"tested_on": "NCI-60 human tumor cell lines", "experiment": "NCI-60 five-dose assay, mean graph midpoint", "assay_type": "cell-based", "settings": "Homo sapiens, read-out: cytotoxicity (GI50, μM) MGM, mean graph midpoint of growth inhibition from 5 dose assay, ranging from 10^−8–10^−4 M", "units": {"GI50": "µM"}, "values": [
      {"smiles": "O=C1c2ccccc2-c2c1c1ccc(Cl)cc1c(=O)n2CCCN1CCOCC1", "note": "[Compound 69, 3-Chloro-5,6-dihydro-6-(3-morpholinopropyl)-5,11-dioxo-11H-indeno[1,2-c]isoquinoline]", "GI50": 4.17},
      {"smiles": "O=C1c2ccccc2-c2c1c1ccc(C(F)(F)F)cc1c(=O)n2CCCn1ccnc1", "note": "[Compound 64, 3-(Trifluoromethyl)-5,6-dihydro-6-(3-(1H-imidazol-1-yl)-propyl)-5,11-dioxo-11H-indeno[1,2-c]isoquinoline]", "GI50": 1.07},
      {"smiles": "O=C1c2ccccc2-c2c1c1ccc(Cl)cc1c(=O)n2C[C@H](O)CO", "note": "[Compound 50, (S)-3-Chloro-5,6-dihydro-6-(2,3-dihydroxypropyl)-5,11-dioxo-11H-indeno[1,2-c]isoquinoline]", "GI50": 1.12},
      {"smiles": "O=C1c2ccccc2-c2c1c1ccc(I)cc1c(=O)n2CCCn1ccnc1", "note": "[Compound 62, 5,6-Dihydro-6-(3-(1H-imidazol-1-yl)propyl)-3-iodo-5,11-dioxo-11H-indeno[1,2-c]isoquinoline]", "GI50": "≥ 0.944"},
      {"smiles": "O=C1c2ccccc2-c2c1c1ccc(F)cc1c(=O)n2CCCn1ccnc1", "note": "[Compound 60, 3-Fluoro-5,6-dihydro-6-(3-(1H-imidazol-1-yl)propyl)-5,11-dioxo-11H-indeno[1,2-c]isoquinoline]", "GI50": 0.692},
      {"smiles": "O=C1c2ccccc2-c2c1c1cc(C(F)(F)F)ccc1c(=O)n2CCCn1ccnc1", "note": "[Compound 63, 2-(Trifluoromethyl)-5,6-dihydro-6-(3-(1H-imidazol-1-yl)-propyl)-5,11-dioxo-11H-indeno[1,2-c]isoquinoline]", "GI50": "≥ 0.944"},
      {"smiles": "O=C1c2ccccc2-c2c1c1ccc(F)cc1c(=O)n2CCCN1CCOCC1", "note": "[Compound 68, 3-Fluoro-5,6-dihydro-6-(3-morpholinopropyl)-5,11-dioxo-11H-indeno[1,2-c]isoquinoline]", "GI50": 2.75},
      {"smiles": "CC[C@@]1(O)C(=O)OCc2c1cc1n(c2=O)Cc2cc3c(CN(C)C)c(O)ccc3nc2-1", "note": "[Compound 2, topotecan, reference compound]", "GI50": "0.0405 ± 0.0187"}
    ]},
    {"tested_on": "NCI-60 human tumor cell lines", "experiment": "NCI-60 five-dose assay, mean graph midpoint", "assay_type": "cell-based", "settings": "human", "units": {"GI50": "µM"}, "values": [
      {"smiles": "O=C1c2ccccc2-c2c1c1ccc(I)cc1c(=O)n2CCCn1ccnc1", "note": "[Compound 62, 5,6-Dihydro-6-(3-(1H-imidazol-1-yl)propyl)-3-iodo-5,11-dioxo-11H-indeno[1,2-c]isoquinoline]", "GI50": 1.62}
    ]}
  ]
}
